{"source": "patent US6537577B1", "about": "“Method of prophylaxis for bovine mastitis” (Bio Medical Development Corporation, priority 2001, dated 2003)", "key": {"Staph. aureus ATCC 29740 [1]": {"system": "Staph. aureus ATCC 29740", "assay": "Excised teat study, preliminary trial", "format": "cell-based, Staphylococcus aureus", "conditions": "for colony count per plate: plates 1-2, count no. 1 and 2", "source_text": "To evaluate the microbicidal activity of the compositions of EXAMPLE 1 and EXAMPLE 2, basic excised teat models used for these experiments are based on providing procedures by Twomey, A, and M. A Arnold, National Dairy Lab. Report, Ruaburn Agric. Res. Center, Hamilton, New Zealand.\nExcess skin and tissue were trimmed, teats were washed in a mild detergent and warm water, rinsed in water, dried, and dipped in 70% ethyl alcohol. Teats were placed in plastic bags in a glycerin and water solution, and subsequently frozen at −20° C. until further use. Frozen teats were thawed in warm water, rinsed in water, dried, and dipped in 70% ethyl alcohol, dried with paper towels, and suspended by metal clips from a glass rod.\nThe pathogen strain that was used for this study was Staph. aureus ATCC 29740. For preparation of Staph. aureus, five 6-ml tubes of trypticase soy broth (TSB) (Becton Dickinson, Cockeysville, Md.) were inoculated from a culture of Staph. aureus actively growing on trypticase soy agar (TSA) (Becton Dickinson) containing 5% bovine calf blood. These tubes were incubated for 5 to 7 hours at 37° C., and this culture was used to inoculate 250 ml of TSB, which was incubated on a gyratory shaker for 16 hours. After incubation, bacterial cells were pelleted by centrifugation at approximately 7000×g, washed twice in 0.1% proteose peptone (Difco Laboratories, Detroit, Mich.), and resuspended to approximately 200 ml in proteose peptone. Serial dilutions were prepared in proteose peptone, and 0.1 ml was plated on TSA. Plates, were incubated for 24 hours at 37° C. and colonies were counted to determine the microbial concentration of the stock suspension.\nChallenge suspensions of Staph. aureus containing approximately 1×10^8 cfu/ml of each organism (diluted with pasteurized milk) were prepared and used for the excised teat trials. The quenching solution was letheen broth (Difco Laboratories) modified to contain 1% sodium thiosulfate (Sigma Chemical Co., St. Louis, Mo.).\nTeats were dipped in a Staph. aereus bacterial suspension to a depth of 15 mm and allowed to drain for 5 minutes. Teats were then dipped into two coating formulations of EXAMPLE 1 and EXAMPLE 2, (Formula No. 3 and Formula No. 5, respectively) to a depth of approximately 30 mm and allowed to drain for 10 minutes. […] The coating was then removed from each teat using a sterile cotton swab by rolling the edge of the softened film using a downward motion toward the teat apex, placed in 5 ml of quencher in sterile blood dilution vials (Baxter Diagnostics, McGaw Park, Ill.), mixed by vortexing for 5 seconds, and after serial dilution, a 0.1-ml aliquot was plated onto TSA. The quenching solution (Bacto-Letheen Broth) was used to inactivate the chlorhexidine germicide and prevent further bacterial killing upon culture. Immediately after the dried coating products were removed from the teats, each teat was rinsed to a total volume of 5 ml of quencher, the rinse collected in sterile blood dilution vials (Baxter Diagnostics) separate from the peelings, mixed by vortexing for 5 seconds, and after serial dilution, a 0.1-ml aliquot was plated to determine the number of organisms remaining on the teat after removal of the coating."}, "Staph. aureus ATCC 29740 [2]": {"system": "Staph. aureus ATCC 29740", "assay": "Excised teat study, Trial 1", "format": "cell-based, Staphylococcus aureus", "description": "(§1) Teats were prepared as described earlier. The pathogen strains that were used for this study were Staph. aureus ATCC 29740 and Strep. Agalactiae ATCC 27956. A culture of Strep. Agalactiae was prepared by thawing a frozen vial of Strep. Agalactiae and plating on a TSA blood plate. After 24 hours incubation at 37° C., five 6-ml tubes of TSB were inoculated with approximately six colonies of Strep. Agalactiae each. These cultures were incubated at 37° C. for approximately 16 hours and then used to inoculate 250 ml of TSB. This culture was incubated on a gyratory shaker for approximately 5.5 hours. Serial dilutions were prepared in proteose peptone, and 0.1 ml was plated on TSA. Plates were incubated for 24 hours at 37° C. and colonies were counted to determine the microbial concentration of the stock suspension.\n(§2) The dilution required to prepare a challenge inoculum of approximately 1×10^8 colony-forming units (cfu)/ml of Staph. aureus or Strep. […] Challenge suspensions of Staph. aureus and Strep. Agalactiae containing approximately 1×10^8 cfu/ml of each organism (diluted with pasteurized milk) were prepared and used for the excised teat trials. The quenching solution was letheen broth (Difco Laboratories) modified to contain 1% sodium thiosulfate (Sigma Chemical Co., St. Louis, Mo.).\n(§3) Agalactiae, respectively. […] Teats were dipped in the bacterial challenge suspensions once to a depth of approximately 15 mm and allowed to drain for 5 minutes, then dipped with the test products to a depth of approximately 30 mm and drained for an additional 10 minutes. For the challenged, but undipped negative control teats, the drainage time was 15 minutes. […] This coating film peeling from each teat was placed in sterile blood dilution vials (Baxter Diagnostics). Remaining organisms on teat skin were then removed by rinsing each teat with approximately 5 ml of quencher expressed from a polyethylene wash bottle into the same vial containing the coating film peeling. Each vial was vortexed for 5 seconds before plating.\n(§4) For all three trials, serial dilutions of peelings or rinses were made in 0.1% proteose peptone, and platinf was in 0.1-ml aliquots on Mannitol Salt agar (Becton Dickinson) for Staph. aureus and TKT/FC agar (Bccton Dickinson) with 0.3% thallium acetate (Sigma Chemical Co.) for Strep. Agalactiae. […] Plates were incubated for 24 hours at 37° C. and colonies were counted. The geometric mean count of the plates was determined, multiplied by […] to express the total volume of rinse, and then multiplied by the dilution factor to yield the total cfu per teat. In cases in which no organisms were recovered from a teat, the value of 0.01 was substituted fro zero in order statistically determine the mean cfu counts.\n(§5) The same set of teats was used for each trial. […]"}, "[3]": {"system": "Strep. Agalactiae ATCC 27956", "assay": "Excised teat study, Trial 2", "format": "cell-based, Streptococcus agalactiae", "description": "as §1, §2, §3, §4, §5"}, "[4]": {"conditions": "log of total organisms recovered"}, "[5]": {"conditions": "of plate counts at the treatment's dilution"}, "[6]": {"conditions": "peeling and rinse combined, total cfu per teat"}}, "note": "Several values for one entry are separate records, joined by “and”; a condition that tells them apart may be missing. Identical values can stand only once."}
{"smiles": "CC(=O)O", "note": "[2.5% acetic acid, acetic acid]", "values": [{"measurement": "Total organisms Recovered", "setting": "Staph. aureus ATCC 29740 [1]", "result": "16,029,000"}, {"measurement": "colony count per plate", "setting": "Staph. aureus ATCC 29740 [1]; Dilution −3", "result": "TNTC^1 and TNTC"}, {"measurement": "colony count per plate", "setting": "Staph. aureus ATCC 29740 [1]; Dilution −4", "result": "327 and 268 and 460 and 262"}, {"measurement": "Log", "setting": "Staph. aureus ATCC 29740 [1]; [4]", "result": 7.20}, {"measurement": "Geometric Mean", "setting": "Staph. aureus ATCC 29740 [1]; of plate counts, dilution −4", "result": "320.58^3"}, {"measurement": "Log reduction", "setting": "Staph. aureus ATCC 29740 [1]; versus negative control", "result": 0.44}, {"measurement": "Log", "setting": "Staph. aureus ATCC 29740 [2]; [4]", "result": 6.66}, {"measurement": "Geometric Mean", "setting": "Staph. aureus ATCC 29740 [2]; [5]", "result": 92.41}, {"measurement": "Total organisms Recovered", "setting": "Staph. aureus ATCC 29740 [2]; [6]", "result": "4,620,500"}, {"measurement": "Log reduction", "setting": "Staph. aureus ATCC 29740 [2]; versus negative control", "result": 0.76}, {"measurement": "Log", "setting": "[3]; [4]", "result": 6.11}, {"measurement": "Geometric Mean", "setting": "[3]; [5]", "result": 25.98}, {"measurement": "Total organisms Recovered", "setting": "[3]; [6]", "result": "1,299,000"}, {"measurement": "Log reduction", "setting": "[3]; versus negative control", "result": 0.93}]}
